Legend:
Conditions in all cases: 72 h
Caco-2 [1] = test: relative viability EC50 (midpoint between 100% and the lowest measured viability); higher = less toxic
HepG2 [2] = test: as above
U2OS [3] = test: as above
Calu-3 [4] = test: as above
Vero E6 [5] = test: as above
Caco-2 [6] = test: drug sensitivity score (DSS) for viability; higher = more toxic; extreme values may be limits of the assay
HepG2 [7] = test: as above
U2OS [8] = test: as above
Calu-3 [9] = test: as above
Vero E6 [10] = test: as above
Caco-2 [11] = test: cell viability relative to DMSO; higher = less toxic
HepG2 [12] = test: as above
U2OS [13] = test: as above
Calu-3 [14] = test: as above
Vero E6 [15] = test: as above

Structure (SMILES)	relative viability EC50 (Caco-2 [1]) [µM]	relative viability EC50 (HepG2 [2]) [µM]	relative viability EC50 (U2OS [3]) [µM]	relative viability EC50 (Calu-3 [4]) [µM]	relative viability EC50 (Vero E6 [5]) [µM]	drug sensitivity score (Caco-2 [6])	drug sensitivity score (HepG2 [7])	drug sensitivity score (U2OS [8])	drug sensitivity score (Calu-3 [9])	drug sensitivity score (Vero E6 [10])	cell viability (Caco-2 [11]; 1 nM) [%]	cell viability (Caco-2 [11]; 10 nM) [%]	cell viability (Caco-2 [11]; 100 nM) [%]	cell viability (Caco-2 [11]; 1000 nM) [%]	cell viability (Caco-2 [11]; 10000 nM) [%]	cell viability (HepG2 [12]; 1 nM) [%]	cell viability (HepG2 [12]; 10 nM) [%]	cell viability (HepG2 [12]; 100 nM) [%]	cell viability (HepG2 [12]; 1000 nM) [%]	cell viability (HepG2 [12]; 10000 nM) [%]	cell viability (U2OS [13]; 1 nM) [%]	cell viability (U2OS [13]; 10 nM) [%]	cell viability (U2OS [13]; 100 nM) [%]	cell viability (U2OS [13]; 1000 nM) [%]	cell viability (U2OS [13]; 10000 nM) [%]	cell viability (Calu-3 [14]; 1 nM) [%]	cell viability (Calu-3 [14]; 10 nM) [%]	cell viability (Calu-3 [14]; 100 nM) [%]	cell viability (Calu-3 [14]; 1000 nM) [%]	cell viability (Calu-3 [14]; 10000 nM) [%]	cell viability (Vero E6 [15]; 1 nM) [%]	cell viability (Vero E6 [15]; 10 nM) [%]	cell viability (Vero E6 [15]; 100 nM) [%]	cell viability (Vero E6 [15]; 1000 nM) [%]	cell viability (Vero E6 [15]; 10000 nM) [%]
CCS(=O)(=O)N(C)[C@H]1c2cc(C#N)ccc2OC(C)(C)[C@@H]1O [chromanol-293B-(-)-[3R,4S]]	> 10	> 10	> 10	> 10	> 10	0	0	0	0	0	94.3	93.2	90.4	93.3	88.9	104	102	91.6	103	98.7	93	93.8	99.1	94.3	95.2	105	99.2	95.5	106	90.6	96.6	107	98.2	92.5	110
CCN(CC)CCNC(=O)c1ccccc1I [I-BZA2]	> 10	> 10	> 10	> 10	> 10	0	0	0	0	0	89.9	86.5	98.7	100	91.4	105	94.7	102	84	100	99.1	101	95.8	102	102	98.8	102	105	105	115	99	99.3	104	91.5	110
CC[C@@H](C)Nc1cc(C(=O)N[C@H]2C[C@H]3CC[C@@H](C2)N3c2ccc(C(=O)C3CC3)cn2)c(C)cc1C(N)=O [XL888]	0.071	0.0285	0.0872	0.0636	0.315	17.3	30.8	24.2	16.8	12.7	104	94.3	59.3	32.8	35.2	108	93.4	4.8	1.3	1	97.2	104	43.4	4.3	3.4	92.4	101	53.6	43.1	38.7	104	104	99.8	30.4	52.4
O=C(CCCCCCCC(=O)NCCO)NCCO [adelmidrol]	> 10	> 10	> 10	> 10	> 10	0	0	0	0	0	93.1	98.7	96.2	104	98.9	112	94.9	98.6	94.8	101	96.3	103	94.5	99.5	103	94.2	97.1	87.2	107	104	99.2	98.7	96.4	96	107
CC/C(=C(/c1ccc(/C=C/C(=O)O)cc1)c1ccc2[nH]ncc2c1)c1ccc(F)cc1Cl [GDC-0810]	> 10	> 10	> 10	> 10	> 10	0	0	0	0	0	102	94.6	95	102	92.7	87.5	109	92.2	94.1	90.6	101	102	98.7	104	100	105	110	84.4	108	105	92.9	102	96.4	100	90.6
CCC(CC)CC1(C(=O)Nc2ccccc2SC(=O)C(C)C)CCCCC1 [dalcetrapib]	> 10	> 10	> 10	> 10	> 10	0	0	0	0	0	99.9	97.1	94.3	93.7	107	88.6	103	88	98.6	90.2	96.9	97.1	108	98.3	104	96	95.4	103	90	97.8	98.4	99.2	101	102	101
Cc1cc(Cl)ccc1OCCCC(=O)NO [droxinostat]	> 10	> 10	> 10	> 10	> 10	0.1	0	0.6	0	0.3	104	101	101	102	86.5	100	92.4	90.7	97.4	87	96.9	106	96.6	100	79.5	96.3	92.8	88.8	97.6	86.8	103	99.4	98.8	97	86.7

— the supplement of paper PMC13380429
